Experimental data taken from US11084814B2, “Pyrido[3, 4-d]pyrimidine derivative and pharmaceutically acceptable salt thereof” (Teijin Pharma Limited, priority 2016, dated 2021).

What was measured:
CDK2/cyclin A2 = biological target: T1, CDK2/cyclin A2 (Homo sapiens, UniProt P24941); experiment: Human CDK2/cyclin A2 inhibitory activity (QS S Assist CDK2/Cyclin A2_FP Kit, IMAP fluorescent polarization); format: biochemical; details: read-out: CDK2 Activity symbol
T1 construct: purchased Carna Biosciences, Inc. QS S Assist CDK2/Cyclin A2_FP Kit
In short: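 Kit CDK2/cyclin A2 (2.5 ng/well) was reacted with kit ATP/substrate/metal in 20 mM HEPES pH 7.4, 0.01% Tween 20 and 2 mM DTT for 60 min at room temperature. IMAP binding reagent was added for 30 min, then fluorescence polarization was read at 485/535 nm. IC50 came from dose-response fitting of percent inhibition.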

CDK4/cyclin D3 = biological target: T2, CDK4/cyclin D3 (Homo sapiens, UniProt P11802); experiment: Human CDK4/cyclin D3 inhibitory activity (QS S Assist CDK4/Cyclin D3_FP Kit, IMAP fluorescent polarization); format: biochemical; details: read-out: CDK4 Activity symbol
T2 construct: purchased Carna Biosciences, Inc. QS S Assist CDK4/Cyclin D3_FP Kit
T2 sequence (P11802 whole entry): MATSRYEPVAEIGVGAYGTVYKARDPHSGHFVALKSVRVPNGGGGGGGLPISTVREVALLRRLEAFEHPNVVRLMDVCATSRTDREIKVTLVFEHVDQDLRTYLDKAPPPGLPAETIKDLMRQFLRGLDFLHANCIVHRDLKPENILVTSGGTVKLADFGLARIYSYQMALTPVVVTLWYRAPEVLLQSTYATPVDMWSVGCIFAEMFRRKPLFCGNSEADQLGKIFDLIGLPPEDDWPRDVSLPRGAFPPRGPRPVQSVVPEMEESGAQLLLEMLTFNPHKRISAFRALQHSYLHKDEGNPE
T2 sequence (P30281 whole entry partner): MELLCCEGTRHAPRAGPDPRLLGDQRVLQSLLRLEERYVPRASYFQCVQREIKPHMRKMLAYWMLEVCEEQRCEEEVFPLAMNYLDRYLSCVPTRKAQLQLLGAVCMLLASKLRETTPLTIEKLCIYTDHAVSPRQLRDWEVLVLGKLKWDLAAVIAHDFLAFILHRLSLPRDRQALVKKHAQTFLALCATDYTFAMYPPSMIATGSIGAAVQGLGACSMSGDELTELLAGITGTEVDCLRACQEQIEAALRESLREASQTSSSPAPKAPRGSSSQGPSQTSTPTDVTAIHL
In short: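 Kinase reactions used kit CDK4/cyclin D3 at 12.5–25 ng/well with the kit ATP/substrate/metal mix in 20 mM HEPES (pH 7.4), 0.01% Tween20 and 2 mM DTT, run 45 min at room temperature. Phosphorylation was detected by IMAP fluorescence polarization (ex 485/em 535 nm) after 30 min binding in the dark. IC50 was fitted from percent inhibition against DMSO controls with and without enzyme.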

[1] = tested on: neuronal death caused by local ischemia; details: rat cerebral infarction model; cited from earlier work

SMILES: CC(O)c1cc2cnc(Nc3ccc(CN4CCN(CCO)CC4)cn3)nc2c(N2C3CCC2COC3)n1 (stereo not drawn) [Compound 295]
- IC50 (CDK2/cyclin A2): ≥ 100 nM
- IC50 (CDK4/cyclin D3): < 10 nM

SMILES: Cc1nc(Nc2ncc3cc([C@@H](C)O)nc(N4CCOC[C@@H]4C)c3n2)ccc1N1CCNCC1 [Compound 296]
- IC50 (CDK2/cyclin A2): ≥ 100 nM
- IC50 (CDK4/cyclin D3): < 10 nM

SMILES: Cc1nc(Nc2ncc3cc([C@@H](C)O)nc(N4CCOC[C@H]4C)c3n2)ccc1N1CCNCC1 [Compound 297]
- IC50 (CDK2/cyclin A2): ≥ 100 nM
- IC50 (CDK4/cyclin D3): < 10 nM

SMILES: Cc1nc(Nc2ncc3cc([C@@H](C)O)nc(N4C5CCC4COC5)c3n2)ccc1N1CCNCC1 [Compound 298]
- IC50 (CDK2/cyclin A2): ≥ 100 nM
- IC50 (CDK4/cyclin D3): < 10 nM

SMILES: C[C@@H](O)c1cc2cnc(Nc3ccc(N4CCNCC4=O)cn3)nc2c(N2CCOC[C@@H]2C)n1 [Compound 299]
- IC50 (CDK2/cyclin A2): ≥ 100 nM
- IC50 (CDK4/cyclin D3): 10 to 100 nM

SMILES: CC(O)c1cc2cnc(Nc3ccc(N4CCNCC4=O)cn3)nc2c(N2CCOCC2C)n1 (stereo not drawn) [Compound 300]
- IC50 (CDK2/cyclin A2): ≥ 100 nM
- IC50 (CDK4/cyclin D3): 10 to 100 nM

SMILES: CC(O)c1cc2cnc(Nc3ccc(N4CCNCC4=O)cn3)nc2c(N2C3CCC2COC3)n1 (stereo not drawn) [Compound 301]
- IC50 (CDK2/cyclin A2): ≥ 100 nM
- IC50 (CDK4/cyclin D3): 10 to 100 nM

SMILES: CC(O)c1cc2cnc(Nc3ccc(N4CCNCC4=O)cn3)nc2c(N2CCCC2C)n1 (stereo not drawn) [Compound 302]
- IC50 (CDK2/cyclin A2): 10 to 100 nM
- IC50 (CDK4/cyclin D3): < 10 nM

SMILES: CC(O)c1cc2cnc(Nc3ccc(N4CCNCC4=O)cn3)nc2c(N2CCCCC2C)n1 (stereo not drawn) [Compound 303]
- IC50 (CDK2/cyclin A2): ≥ 100 nM
- IC50 (CDK4/cyclin D3): < 10 nM

SMILES: C[C@@H](O)c1cc2cnc(Nc3ccc(C(=O)N4CCCN(C)CC4)cn3)nc2c(N2CCCCC2)n1 [Compound 304]
- IC50 (CDK2/cyclin A2): 10 to 100 nM
- IC50 (CDK4/cyclin D3): < 10 nM

SMILES: Cc1nc(Nc2ncc3cc([C@@H](C)O)nc(N4CCCCC4)c3n2)ccc1N1CCCNCC1=O [Compound 305]
- IC50 (CDK2/cyclin A2): 10 to 100 nM
- IC50 (CDK4/cyclin D3): < 10 nM

SMILES: Cc1nc(Nc2ncc3cc([C@@H](C)O)nc(N4CCCCCC4)c3n2)ccc1N1CCCNCC1=O [Compound 306]
- IC50 (CDK2/cyclin A2): 10 to 100 nM
- IC50 (CDK4/cyclin D3): < 10 nM

SMILES: C[C@@H](O)c1cc2cnc(Nc3ccc(N4CCCNCC4=O)cn3)nc2c(N2CCCCCC2)n1 [Compound 307]
- IC50 (CDK2/cyclin A2): 10 to 100 nM
- IC50 (CDK4/cyclin D3): < 10 nM

SMILES: C[C@@H](O)c1cc2cnc(Nc3ccc(C(=O)N4CCN(CCO)CC4)cn3)nc2c(N2CCCCC2)n1 [Compound 308]
- IC50 (CDK2/cyclin A2): ≥ 100 nM
- IC50 (CDK4/cyclin D3): < 10 nM

SMILES: C[C@@H](O)c1cc2cnc(Nc3ccc(C(=O)N4CCN(C)CC4)cn3)nc2c(N2CCCCC2)n1 [Compound 309]
- IC50 (CDK2/cyclin A2): ≥ 100 nM
- IC50 (CDK4/cyclin D3): < 10 nM

SMILES: C[C@@H](O)c1cc2cnc(Nc3ccc(C(=O)N4CCOCC4)cn3)nc2c(N2CCCCC2)n1 [Compound 310]
- IC50 (CDK2/cyclin A2): ≥ 100 nM
- IC50 (CDK4/cyclin D3): < 10 nM

SMILES: C[C@@H](O)c1cc2cnc(Nc3ccc(C(=O)N4CCC(O)CC4)cn3)nc2c(N2CCCCC2)n1 [Compound 311]
- IC50 (CDK2/cyclin A2): ≥ 100 nM
- IC50 (CDK4/cyclin D3): < 10 nM

SMILES: C[C@@H](O)c1cc2cnc(Nc3ccc(C(=O)N4CC[C@@H](N(C)C)C4)cn3)nc2c(N2CCCCC2)n1 [Compound 312]
- IC50 (CDK2/cyclin A2): ≥ 100 nM
- IC50 (CDK4/cyclin D3): < 10 nM

SMILES: C[C@@H](O)c1cc2cnc(Nc3ccc(C(=O)N4CC[C@H](N(C)C)C4)cn3)nc2c(N2CCCCC2)n1 [Compound 313]
- IC50 (CDK2/cyclin A2): ≥ 100 nM
- IC50 (CDK4/cyclin D3): < 10 nM

SMILES: C[C@@H](O)c1cc2cnc(Nc3ccc(C(=O)N4CCS(=O)(=O)CC4)cn3)nc2c(N2CCCCC2)n1 [Compound 314]
- IC50 (CDK2/cyclin A2): ≥ 100 nM
- IC50 (CDK4/cyclin D3): < 10 nM

SMILES: C[C@@H](O)c1cc2cnc(Nc3ccc(C(=O)N4CCC(N(C)C)CC4)cn3)nc2c(N2CCCCC2)n1 [Compound 315]
- IC50 (CDK2/cyclin A2): ≥ 100 nM
- IC50 (CDK4/cyclin D3): < 10 nM

SMILES: C[C@@H](O)c1cc2cnc(Nc3ccc(C(=O)N(C)CCN(C)C)cn3)nc2c(N2CCCCC2)n1 [Compound 316]
- IC50 (CDK2/cyclin A2): ≥ 100 nM
- IC50 (CDK4/cyclin D3): < 10 nM

SMILES: CCN1CCN(C(=O)c2ccc(Nc3ncc4cc([C@@H](C)O)nc(N5CCCCC5)c4n3)nc2)CC1 [Compound 317]
- IC50 (CDK2/cyclin A2): ≥ 100 nM
- IC50 (CDK4/cyclin D3): < 10 nM

SMILES: C[C@@H](O)c1cc2cnc(Nc3ccc(C(=O)N4CCN(C)CC4)cn3)nc2c(N2CCCC2)n1 [Compound 318]
- IC50 (CDK2/cyclin A2): ≥ 100 nM
- IC50 (CDK4/cyclin D3): < 10 nM

SMILES: C[C@@H](O)c1cc2cnc(Nc3ccc(C(=O)N4CCN(C)CC4)cn3)nc2c(N2CCCCCC2)n1 [Compound 319]
- IC50 (CDK2/cyclin A2): 10 to 100 nM
- IC50 (CDK4/cyclin D3): < 10 nM

SMILES: C[C@@H](O)c1cc2cnc(Nc3ccc(C(=O)N4CCN(C)CC4)cn3)nc2c(N2CCC(F)CC2)n1 [Compound 320]
- IC50 (CDK2/cyclin A2): ≥ 100 nM
- IC50 (CDK4/cyclin D3): < 10 nM

SMILES: CC(O)c1cc2cnc(Nc3ccc(CN4CCN(C)CC4)cn3)nc2c(N2CC3CCC(C2)O3)n1 (stereo not drawn) [Compound 321]
- IC50 (CDK2/cyclin A2): ≥ 100 nM
- IC50 (CDK4/cyclin D3): < 10 nM

SMILES: C[C@@H](O)c1cc2cnc(Nc3ccc(CN4CCN(C)CC4)cn3)nc2c(N2CCOCC2(C)C)n1 [Compound 322]
- IC50 (CDK2/cyclin A2): ≥ 100 nM
- IC50 (CDK4/cyclin D3): < 10 nM

SMILES: O=C1CNCCCN1c1ccc(Nc2ncc3cc(C4COC4)nc(N4CCCCC4)c3n2)nc1 [Compound 323]
- IC50 (CDK2/cyclin A2): ≥ 100 nM
- IC50 (CDK4/cyclin D3): < 10 nM

SMILES: C[C@@H](O)c1cc2cnc(Nc3ccc(N4CC5(C4)CN(C4COC4)C5)nn3)nc2c(N2CCCCC2)n1 [Compound 324]
- IC50 (CDK2/cyclin A2): ≥ 100 nM
- IC50 (CDK4/cyclin D3): < 10 nM

SMILES: C[C@@H](O)c1cc2cnc(Nc3ccc(CN4CCC5(CC4)COC5)cn3)nc2c(N2CCCCC2)n1 [Compound 325]
- IC50 (CDK2/cyclin A2): ≥ 100 nM
- IC50 (CDK4/cyclin D3): < 10 nM

SMILES: C[C@@H](O)c1cc2cnc(Nc3ccc(CN4CCC(C#N)CC4)cn3)nc2c(N2CCCCC2)n1 [Compound 326]
- IC50 (CDK2/cyclin A2): ≥ 100 nM
- IC50 (CDK4/cyclin D3): < 10 nM

SMILES: Cc1nc(Nc2ncc3cc([C@@H](C)O)nc(N4CCCCC4)c3n2)ccc1N1CC2(C1)CN(C1COC1)C2 [Compound 327]
- IC50 (CDK2/cyclin A2): ≥ 100 nM
- IC50 (CDK4/cyclin D3): < 10 nM

SMILES: Cc1nc(Nc2ncc3cc([C@@H](C)O)nc(N4CCCCC4)c3n2)ccc1N1CCN(C2CN(CCO)C2)CC1 [Compound 328]
- IC50 (CDK2/cyclin A2): ≥ 100 nM
- IC50 (CDK4/cyclin D3): < 10 nM

SMILES: CC(O)c1cc2cnc(Nc3ccc(N4CCCNCC4=O)cn3)nc2c(N2C3CCCC2CC3)n1 (stereo not drawn) [Compound 329]
- IC50 (CDK2/cyclin A2): 10 to 100 nM
- IC50 (CDK4/cyclin D3): < 10 nM

SMILES: C[C@@H](O)c1cc2cnc(Nc3ccc4c(n3)CCN(C(=O)Cc3cccnc3)C4)nc2c(N2CCCCC2)n1 [Compound 330]
- IC50 (CDK2/cyclin A2): ≥ 100 nM
- IC50 (CDK4/cyclin D3): 10 to 100 nM

SMILES: C[C@@H](O)c1cc2cnc(Nc3ccc4c(n3)CCN(C(=O)Cn3cccn3)C4)nc2c(N2CCCCC2)n1 [Compound 331]
- IC50 (CDK2/cyclin A2): ≥ 100 nM
- IC50 (CDK4/cyclin D3): 10 to 100 nM

SMILES: C[C@@H](O)c1cc2cnc(Nc3ccc4c(n3)CCN(C(=O)Cn3cncn3)C4)nc2c(N2CCCCC2)n1 [Compound 332]
- IC50 (CDK2/cyclin A2): ≥ 100 nM
- IC50 (CDK4/cyclin D3): 10 to 100 nM

SMILES: C[C@@H](O)c1cc2cnc(Nc3ccc4c(n3)CCN(C(=O)Cn3cnnc3)C4)nc2c(N2CCCCC2)n1 [Compound 333]
- IC50 (CDK2/cyclin A2): ≥ 100 nM
- IC50 (CDK4/cyclin D3): < 10 nM

SMILES: Cc1nc(Nc2ncc3cc([C@@H](C)O)nc(N4CCCCC4)c3n2)ccc1N1CCN(C2CN(C)C2)CC1 [Compound 334]
- IC50 (CDK2/cyclin A2): ≥ 100 nM
- IC50 (CDK4/cyclin D3): < 10 nM

SMILES: C[C@@H](O)c1cc2cnc(Nc3ccc4c(n3)CCN(C(=O)Cc3ccccn3)C4)nc2c(N2CCCCC2)n1 [Compound 335]
- IC50 (CDK2/cyclin A2): ≥ 100 nM
- IC50 (CDK4/cyclin D3): 10 to 100 nM

SMILES: C[C@@H](O)c1cc2cnc(Nc3ccc4c(n3)CCN(C(=O)Cn3ccnn3)C4)nc2c(N2CCCCC2)n1 [Compound 336]
- IC50 (CDK2/cyclin A2): ≥ 100 nM
- IC50 (CDK4/cyclin D3): 10 to 100 nM

SMILES: C[C@@H](O)c1cc2cnc(Nc3ccc4c(n3)CCN(C(=O)Cn3nccn3)C4)nc2c(N2CCCCC2)n1 [Compound 337]
- IC50 (CDK2/cyclin A2): ≥ 100 nM
- IC50 (CDK4/cyclin D3): 10 to 100 nM

SMILES: CN1CC[C@H](c2c(O)cc(O)c3c(=O)cc(-c4ccccc4Cl)oc23)[C@H](O)C1 [flavopiridol]
- neuronal death [1]: reduced
